Tests used:
blackgrass = experiment: Test B pre/postemergence blackgrass; assay type: in vivo, Alopecurus myosuroides
Outline: (§1)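 Response is a visual 0-to-10 score relative to untreated plants, where 0 means no effect and 10 means complete control, taken twelve to sixteen days after application. Treatments went onto soil at planting and onto foliage of 1- to 4-leaf plants, using a surfactant-containing non-phytotoxic solvent.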

surinam grass = experiment: Test B pre/postemergence surinam grass; assay type: in vivo, Brachiaria decumbens
Outline: as §1

cocklebur = experiment: Test B pre/postemergence cocklebur; assay type: in vivo, Xanthium strumarium; conditions: for Cocklebur plant response rating: scale of 0 to 10 where 0 is no effect and 10 is complete control
Outline: as §1

corn = experiment: Test B pre/postemergence corn; assay type: in vivo, Zea mays; conditions: for Corn plant response rating: scale of 0 to 10 where 0 is no effect and 10 is complete control
Outline: as §1

crabgrass = experiment: Test B pre/postemergence crabgrass; assay type: in vivo, Digitaria sanguinalis; conditions: for Crabgrass plant response rating: scale of 0 to 10 where 0 is no effect and 10 is complete control
Outline: as §1

giant foxtail = experiment: Test B pre/postemergence giant foxtail; assay type: in vivo, Setaria faberii; conditions: for Giant foxtail plant response rating: scale of 0 to 10 where 0 is no effect and 10 is complete control
Outline: as §1

pigweed = experiment: Test B pre/postemergence pigweed; assay type: in vivo, Amaranthus retroflexus; conditions: for Redroot pigweed plant response rating: scale of 0 to 10 where 0 is no effect and 10 is complete control
Outline: as §1

rape = experiment: Test B pre/postemergence rape; assay type: in vivo, Brassica napus; conditions: for Rape plant response rating: scale of 0 to 10 where 0 is no effect and 10 is complete control
Outline: as §1

soybean = experiment: Test B pre/postemergence soybean; assay type: in vivo, Glycine max; conditions: for Soybean plant response rating: scale of 0 to 10 where 0 is no effect and 10 is complete control
Outline: as §1

sugar beet = experiment: Test B pre/postemergence sugar beet; assay type: in vivo, Beta vulgaris; conditions: for Sugarbeets plant response rating: scale of 0 to 10 where 0 is no effect and 10 is complete control
Outline: as §1

wheat = experiment: Test B pre/postemergence wheat; assay type: in vivo, Triticum aestivum; conditions: for Wheat plant response rating: scale of 0 to 10 where 0 is no effect and 10 is complete control
Outline: as §1

purple nutsedge = experiment: Test B pre/postemergence purple nutsedge; assay type: in vivo, Cyperus rotundus; conditions: for Nutsedge plant response rating: scale of 0 to 10 where 0 is no effect and 10 is complete control
Outline: as §1

rice = experiment: Test B flood test rice; assay type: in vivo, Oryza sativa
Outline: (§2)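 Plants were grown to the 2-leaf stage before treatment with test chemical, then held in a greenhouse for twelve to sixteen days. Injury was visually rated against untreated controls on a 0–10 scale, where 0 is no effect and 10 is complete control.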

smallflower flatsedge = experiment: Test B flood test smallflower flatsedge; assay type: in vivo, Cyperus difformis
Outline: as §2

duck salad = experiment: Test B flood test duck salad; assay type: in vivo, Heteranthera limosa
Outline: as §2

bamyardgrass = experiment: Test B flood test barnyardgrass; assay type: in vivo, Echinochloa crus-galli
Outline: as §2

[1] = Postemergence, Rate 125 g/ha, scale 0 to 10, 0 is no effect, 10 is complete control
[2] = Preemergence, Rate 62 g/ha, scale 0 to 10 (0 no effect, 10 complete control)
[3] = Preemergence, Rate 250 g/ha, scale of 0 to 10 where 0 is no effect and 10 is complete control
[4] = Preemergence, Rate 500 g/ha, scale of 0 to 10 where 0 is no effect and 10 is complete control
[5] = Rate 62 g/ha, Postemergence, scale of 0 to 10 where 0 is no effect and 10 is complete control
[6] = Rate 250 g/ha, Postemergence, scale of 0 to 10 where 0 is no effect and 10 is complete control
[7] = Rate 500 g/ha, Postemergence, scale 0 to 10, 0 no effect, 10 complete control
[8] = Postemergence (flood test), Rate 125 g/ha, scale 0 to 10, 0 is no effect, 10 is complete control
[9] = Rate 62 g/ha, Postemergence (flood test species), scale of 0 to 10 where 0 is no effect and 10 is complete control
[10] = Rate 500 g/ha, listed under Postemergence (flood test species), scale 0 to 10, 0 no effect, 10 complete control

Cc1cccc(C(C)(C)C)c1-n1c(=O)on(C(=O)N(c2ccc(F)cc2)C(C)C)c1=O [Compound 359]
3: Plant response rating, Soybean (soybean; [7])
1: Plant response rating, Cocklebur (cocklebur; [7])
2: Plant response rating, Blackgrass (blackgrass; [7]) | Plant response rating, Soybean (soybean; [1]) | Plant response rating, Wheat (wheat; [7])
0: Plant response rating, Blackgrass (blackgrass; [1]) | Plant response rating, Blackgrass (blackgrass; [2]) | Blackgrass plant response rating (0 to 10 scale) (blackgrass; Preemergence, Rate 125 g/ha) | Blackgrass plant response rating (blackgrass; [3]) | Blackgrass plant response rating (blackgrass; [4]) | Blackgrass plant response rating (blackgrass; [5]) | Plant response rating, Blackgrass (blackgrass; [6]) | Plant response rating, B. signalgrass (surinam grass; [1]) | Plant response rating, B. signalgrass (surinam grass; [2]) | B. signalgrass plant response rating (0 to 10 scale, 0 is no effect, 10 is complete control) (surinam grass; Preemergence, Rate 125 g/ha) | B. signalgrass plant response rating (surinam grass; [3]) | B. signalgrass plant response rating (surinam grass; [4]) | B. signalgrass plant response rating (surinam grass; [5]) | Plant response rating, B. signalgrass (surinam grass; [6]) | Plant response rating, B. signalgrass (surinam grass; [7]) | Plant response rating, Cocklebur (cocklebur; [1]) | Plant response rating, Cocklebur (cocklebur; [2]) | Cocklebur plant response rating (0 to 10 scale) (cocklebur; Preemergence, Rate 125 g/ha) | Cocklebur plant response rating (cocklebur; Preemergence, Rate 500 g/ha) | Cocklebur plant response rating (cocklebur; Rate 62 g/ha, Postemergence) | Plant response rating, Corn (corn; [1]) | Plant response rating, Corn (corn; [2]) | Corn plant response rating (0 to 10 scale) (corn; Preemergence, Rate 125 g/ha) | Corn plant response rating (corn; Preemergence, Rate 250 g/ha) | Corn plant response rating (corn; Preemergence, Rate 500 g/ha) | Corn plant response rating (corn; Rate 62 g/ha, Postemergence) | Plant response rating, Corn (corn; [7]) | Plant response rating, Crabgrass (crabgrass; [1]) | Plant response rating, Crabgrass (crabgrass; [2]) | Crabgrass plant response rating (0 to 10 scale) (crabgrass; Preemergence, Rate 125 g/ha) | Crabgrass plant response rating (crabgrass; Preemergence, Rate 250 g/ha) | Crabgrass plant response rating (crabgrass; Preemergence, Rate 500 g/ha) | Crabgrass plant response rating (crabgrass; Rate 62 g/ha, Postemergence) | Plant response rating, Crabgrass (crabgrass; [7]) | Plant response rating, Giant foxtail (giant foxtail; [1]) | Plant response rating, Giant foxtail (giant foxtail; [2]) | Giant foxtail plant response rating (0 to 10 scale) (giant foxtail; Preemergence, Rate 125 g/ha) | Giant foxtail plant response rating (giant foxtail; Preemergence, Rate 250 g/ha) | Giant foxtail plant response rating (giant foxtail; Preemergence, Rate 500 g/ha) | Giant foxtail plant response rating (giant foxtail; Rate 62 g/ha, Postemergence) | Plant response rating, Giant foxtail (giant foxtail; [7]) | Plant response rating, Redroot pigweed (pigweed; [1]) | Plant response rating, Redroot pigweed (pigweed; [2]) | Redroot pigweed plant response rating (0 to 10 scale) (pigweed; Preemergence, Rate 125 g/ha) | Redroot pigweed plant response rating (pigweed; Preemergence, Rate 250 g/ha) | Redroot pigweed plant response rating (pigweed; Preemergence, Rate 500 g/ha) | Redroot pigweed plant response rating (pigweed; Rate 62 g/ha, Postemergence) | Plant response rating, Redroot pigweed (pigweed; [7]) | Plant response rating, Rape (rape; [1]) | Plant response rating, Rape (rape; [2]) | Rape plant response rating (0 to 10 scale) (rape; Preemergence, Rate 125 g/ha) | Rape plant response rating (rape; Preemergence, Rate 250 g/ha) | Rape plant response rating (rape; Preemergence, Rate 500 g/ha) | Rape plant response rating (rape; Rate 62 g/ha, Postemergence) | Plant response rating, Rape (rape; [7]) | Plant response rating, Soybean (soybean; [2]) | Soybean plant response rating (0 to 10 scale) (soybean; Preemergence, Rate 125 g/ha) | Soybean plant response rating (soybean; Preemergence, Rate 250 g/ha) | Soybean plant response rating (soybean; Preemergence, Rate 500 g/ha) | Soybean plant response rating (soybean; Rate 62 g/ha, Postemergence) | Plant response rating, Sugarbeets (sugar beet; [1]) | Plant response rating, Sugarbeets (sugar beet; [2]) | Sugarbeets plant response rating (0 to 10 scale) (sugar beet; Preemergence, Rate 125 g/ha) | Sugarbeets plant response rating (sugar beet; Preemergence, Rate 250 g/ha) | Sugarbeets plant response rating (sugar beet; Preemergence, Rate 500 g/ha) | Sugarbeets plant response rating (sugar beet; Rate 62 g/ha, Postemergence) | Plant response rating, Sugarbeets (sugar beet; [7]) | Plant response rating, Wheat (wheat; [1]) | Plant response rating, Wheat (wheat; [2]) | Wheat plant response rating (0 to 10 scale) (wheat; Preemergence, Rate 125 g/ha) | Wheat plant response rating (wheat; Preemergence, Rate 250 g/ha) | Wheat plant response rating (wheat; Preemergence, Rate 500 g/ha) | Wheat plant response rating (wheat; Rate 62 g/ha, Postemergence) | Plant response rating, Nutsedge (purple nutsedge; [1]) | Plant response rating, Nutsedge (purple nutsedge; [2]) | Nutsedge plant response rating (0 to 10 scale) (purple nutsedge; Preemergence, Rate 125 g/ha) | Nutsedge plant response rating (purple nutsedge; Preemergence, Rate 250 g/ha) | Nutsedge plant response rating (purple nutsedge; Preemergence, Rate 500 g/ha) | Nutsedge plant response rating (purple nutsedge; Rate 62 g/ha, Postemergence) | Plant response rating, Nutsedge (purple nutsedge; [7]) | Plant response rating, Rice (rice; [8]) | Rice plant response rating (rice; [9]) | Plant response rating, Rice (rice; [10]) | Plant response rating, S. Flatsedge (smallflower flatsedge; [8]) | S. Flatsedge plant response rating (smallflower flatsedge; [9]) | Plant response rating, S. Flatsedge (smallflower flatsedge; [10]) | Plant response rating, Ducksalad (duck salad; [8]) | Ducksalad plant response rating (duck salad; [9]) | Plant response rating, Ducksalad (duck salad; [10]) | Plant response rating, Barnyardgrass (bamyardgrass; [8]) | Barnyardgrass plant response rating (bamyardgrass; [9]) | Plant response rating, Barnyardgrass (bamyardgrass; Rate 250 g/ha, Postemergence (flood test species), scale of 0 to 10 where 0 is no effect and 10 is complete control) | Plant response rating, Barnyardgrass (bamyardgrass; [10])

— US6737383B1, “Herbicidal oxadiazolidines” (priority 1999, dated 2004)
